Test results published in US20220387405A1, “METHODS OF TREATMENT WITH N-((R)-1-(3-CHLOROPYRIDIN-2-YL)-2,2,2-TRIFLUOROETHYL)-2-((S)-2,6-DIOXOPIPERIDIN-3-YL)-1-OXOISOINDOLINE-5-CARBOXAMIDE” (CELGENE CORPORATION, priority 2021, published 2022).

Experiments:
[1] = system: leukemic cells from TP53 WT AML patients; assay: PharmaFlow test (Vivia), cytotoxic effect on leukemic cells in AML patient BM samples; format: cell-based, human; settings: AML patient samples
[2] = system: Normal T lymphocytes in BM samples; assay: PharmaFlow test, normal T lymphocytes in AML patient BM samples; format: cell-based, human; settings: BM samples of AML patients; for Compound 1 all but 1 patient
[3] = system: human peripheral blood (PB) lymphocytes; assay: In vitro mammalian cell micronucleus test; settings: 4 hours with and without S9, 24 hours without S9; compared with negative controls
Method: Compound 1 was tested in the in vitro mammalian cell micronucleus test in human peripheral blood (PB) lymphocytes in the presence and absence of a metabolic activation system, Aroclor-induced rat liver fraction (S9), for 4 hours, and in the absence of S9 for 24 hours. The highest concentration tested was 481 μg/mL. Dimethyl sulfoxide (DMSO) was used as the solvent. […] In addition, 2 lower concentrations with appropriate concentration and cytotoxicity spacing were chosen for micronucleus scoring in each regime.

Compound	cytotoxicity in leukemic cells [1]	cytotoxicity in T lymphocytes [2]	proportion of micronucleated binucleate cells (MBC) [3]
COc1cc(C(=O)O)ccc1NC(=O)[C@@H]1N[C@@H](CC(C)(C)C)[C@](C#N)(c2ccc(Cl)cc2F)[C@H]1c1cccc(Cl)c1F [RG7388, idasanutlin, reference compound]	pan-cytotoxicity	pan-cytotoxicity	
O=P1(N(CCCl)CCCl)NCCCO1 (stereo not shown) [cyclophosphamide monohydrate, reference compound]			statistically significant increases
COC(=O)Nc1nc2ccc(C(=O)c3cccs3)cc2[nH]1 [nocodazole, reference compound]			statistically significant increases
